Measured values as given in ChEMBL document CHEMBL1201862, “PubChem BioAssay data set” (2004).
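Tested at 5 concentrations; 48 h exposure; 96-well plates; endpoints linearly interpolated, else capped at highest concentration. Abbreviation: GI50, concentration required for 50% inhibition of growth.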 Active and inactive are the calls of the source. No stated cut-off is given here; in the data, active = GI50 up to about 1.1 µM and inactive = higher.

Columns and labels:
Test in all cases: growth of human tumour cells (NCI), 48 h
786-0 = test system: 786-0
A498 = test system: A498
A549 = test system: A549
ACHN = test system: ACHN
BT-549 = test system: BT-549
CAKI-1 = test system: CAKI-1
COLO 205 = test system: COLO 205
DU-145 = test system: DU-145
EKVX = test system: EKVX
HCC 2998 = test system: HCC 2998
HCT-116 = test system: HCT-116
HCT-15 = test system: HCT-15
HL-60 = test system: HL-60
HOP-92 = test system: HOP-92
HT-29 = test system: HT-29
Hs-578T = test system: Hs-578T
IGROV-1 = test system: IGROV-1
K562 = test system: K562
KM12 = test system: KM12
LOX IMVI = test system: LOX IMVI
M14 = test system: M14
MCF7 = test system: MCF7
MDA-MB-231 = test system: MDA-MB-231
MDA-MB-435 = test system: MDA-MB-435
MDA-N = test system: MDA-N
MOLT-4 = test system: MOLT-4
Malme-3M = test system: Malme-3M
NCI-H226 = test system: NCI-H226
NCI-H23 = test system: NCI-H23
NCI-H460 = test system: NCI-H460
NCI-H522 = test system: NCI-H522
NCI/ADR-RES = test system: NCI/ADR-RES
OVCAR-3 = test system: OVCAR-3
OVCAR-4 = test system: OVCAR-4
OVCAR-5 = test system: OVCAR-5
OVCAR-8 = test system: OVCAR-8
PC-3 = test system: PC-3
RPMI-8226 = test system: RPMI-8226
SF-268 = test system: SF-268
SF-295 = test system: SF-295
SF-539 = test system: SF-539
SK-MEL-28 = test system: SK-MEL-28
SK-MEL-2 = test system: SK-MEL-2
SK-MEL-5 = test system: SK-MEL-5
SK-OV-3 = test system: SK-OV-3
SN12C = test system: SN12C
SNB-19 = test system: SNB-19
SNB-75 = test system: SNB-75
SW-620 = test system: SW-620
T47D = test system: T47D
U-251 = test system: U-251
UACC-257 = test system: UACC-257
UACC-62 = test system: UACC-62
UO-31 = test system: UO-31
CCRF-CEM = test system: CCRF-CEM
HOP-62 = test system: HOP-62
RXF 393 = test system: RXF 393
SR = test system: SR
TK-10 = test system: TK-10

SMILES: Cc1cccc(C(C)(C)C)c1NC(=O)/C(Cc1nc2ccc([N+](=O)[O-])cc2nc1O)=N\NC(=O)C[N+](C)(C)C
- GI50 (786-0): > 100 µM (inactive)
- GI50 (A498): 60.7 µM (inactive)
- GI50 (A549): > 100 µM (inactive)
- GI50 (ACHN): > 100 µM (inactive)
- GI50 (BT-549): 38.5 µM (inactive)
- GI50 (CAKI-1): > 100 µM (inactive)
- GI50 (COLO 205): 71.8 µM (inactive)
- GI50 (DU-145): > 100 µM (inactive)
- GI50 (EKVX): > 100 µM (inactive)
- GI50 (HCC 2998): > 100 µM (inactive)
- GI50 (HCT-116): > 100 µM (inactive)
- GI50 (HCT-15): > 100 µM
- GI50 (HL-60): > 100 µM (inactive)
- GI50 (HOP-92): 47.2 µM (inactive)
- GI50 (HT-29): > 100 µM (inactive)
- GI50 (Hs-578T): > 100 µM (inactive)
- GI50 (IGROV-1): > 100 µM (inactive)
- GI50 (K562): > 100 µM (inactive)
- GI50 (KM12): 47.1 µM (inactive)
- GI50 (LOX IMVI): 51.3 µM (inactive)
- GI50 (M14): > 100 µM (inactive)
- GI50 (MCF7): 74.6 µM (inactive)
- GI50 (MDA-MB-231): > 100 µM (inactive)
- GI50 (MDA-MB-435): > 100 µM (inactive)
- GI50 (MDA-N): > 100 µM (inactive)
- GI50 (MOLT-4): 38.5 µM (inactive)
- GI50 (Malme-3M): > 100 µM (inactive)
- GI50 (NCI-H226): > 100 µM (inactive)
- GI50 (NCI-H23): > 100 µM (inactive)
- GI50 (NCI-H460): > 100 µM (inactive)
- GI50 (NCI-H522): 17.4 µM (inactive)
- GI50 (NCI/ADR-RES): 60.5 µM (inactive)
- GI50 (OVCAR-3): 52 µM (inactive)
- GI50 (OVCAR-4): > 100 µM (inactive)
- GI50 (OVCAR-5): > 100 µM (inactive)
- GI50 (OVCAR-8): > 100 µM (inactive)
- GI50 (PC-3): 62.5 µM (inactive)
- GI50 (RPMI-8226): 84.5 µM (inactive)
- GI50 (SF-268): > 100 µM (inactive)
- GI50 (SF-295): > 100 µM (inactive)
- GI50 (SF-539): > 100 µM (inactive)
- GI50 (SK-MEL-28): > 100 µM (inactive)
- GI50 (SK-MEL-2): > 100 µM (inactive)
- GI50 (SK-MEL-5): > 100 µM (inactive)
- GI50 (SK-OV-3): > 100 µM (inactive)
- GI50 (SN12C): > 100 µM (inactive)
- GI50 (SNB-19): > 100 µM (inactive)
- GI50 (SNB-75): > 100 µM (inactive)
- GI50 (SW-620): 65.8 µM (inactive)
- GI50 (T47D): 53.5 µM (inactive)
- GI50 (U-251): > 100 µM (inactive)
- GI50 (UACC-257): > 100 µM (inactive)
- GI50 (UACC-62): > 100 µM (inactive)
- GI50 (UO-31): 37.8 µM (inactive)

SMILES: CNC(=S)N/N=C(\C)c1cc(OC)ccc1O
- GI50 (786-0): > 100 µM (inactive)
- GI50 (A498): > 100 µM (inactive)
- GI50 (A549): > 100 µM (inactive)
- GI50 (ACHN): > 100 µM (inactive)
- GI50 (BT-549): > 100 µM (inactive)
- GI50 (CAKI-1): > 100 µM (inactive)
- GI50 (CCRF-CEM): > 27.9 µM (inactive)
- GI50 (COLO 205): 0.447 µM (active)
- GI50 (DU-145): > 100 µM (inactive)
- GI50 (EKVX): > 100 µM (inactive)
- GI50 (HCC 2998): > 100 µM (inactive)
- GI50 (HCT-116): > 100 µM (inactive)
- GI50 (HCT-15): 63.1 µM
- GI50 (HL-60): > 31.4 µM (inactive)
- GI50 (HOP-62): > 100 µM (inactive)
- GI50 (HOP-92): > 100 µM (inactive)
- GI50 (HT-29): 0.951 µM (active)
- GI50 (Hs-578T): > 100 µM (inactive)
- GI50 (IGROV-1): > 64.9 µM (inactive)
- GI50 (K562): 3.22 µM (inactive)
- GI50 (KM12): > 100 µM (inactive)
- GI50 (LOX IMVI): > 100 µM (inactive)
- GI50 (M14): > 92.5 µM (inactive)
- GI50 (MDA-MB-231): > 100 µM (inactive)
- GI50 (MDA-MB-435): > 78.9 µM (inactive)
- GI50 (MDA-N): > 100 µM (inactive)
- GI50 (MOLT-4): > 65.6 µM (inactive)
- GI50 (Malme-3M): > 100 µM (inactive)
- GI50 (NCI-H23): > 100 µM (inactive)
- GI50 (NCI-H460): > 100 µM (inactive)
- GI50 (NCI-H522): 3.9 µM (inactive)
- GI50 (NCI/ADR-RES): 28.6 µM (inactive)
- GI50 (OVCAR-3): > 100 µM (inactive)
- GI50 (OVCAR-4): > 100 µM (inactive)
- GI50 (OVCAR-5): > 100 µM (inactive)
- GI50 (OVCAR-8): > 100 µM (inactive)
- GI50 (PC-3): > 96.4 µM (inactive)
- GI50 (RPMI-8226): > 31.3 µM (inactive)
- GI50 (RXF 393): > 100 µM (inactive)
- GI50 (SF-268): > 100 µM (inactive)
- GI50 (SF-295): > 100 µM (inactive)
- GI50 (SF-539): > 100 µM (inactive)
- GI50 (SK-MEL-28): > 100 µM (inactive)
- GI50 (SK-MEL-2): > 100 µM (inactive)
- GI50 (SK-MEL-5): > 44.3 µM (inactive)
- GI50 (SK-OV-3): > 100 µM (inactive)
- GI50 (SN12C): > 100 µM (inactive)
- GI50 (SNB-19): > 100 µM (inactive)
- GI50 (SNB-75): > 95.3 µM (inactive)
- GI50 (SR): 43.5 µM (inactive)
- GI50 (SW-620): > 100 µM (inactive)
- GI50 (T47D): > 100 µM (inactive)
- GI50 (U-251): > 100 µM (inactive)
- GI50 (UACC-257): > 100 µM (inactive)
- GI50 (UACC-62): > 100 µM (inactive)
- GI50 (UO-31): > 100 µM (inactive)

SMILES: COc1ccc2c3c1OC1C4(CCC5C(C2)N(CC2CC2)CCC351)OCCO4 (configuration not stated)
- GI50 (786-0): > 100 µM (inactive)
- GI50 (A549): > 100 µM (inactive)
- GI50 (ACHN): > 100 µM (inactive)
- GI50 (BT-549): > 100 µM (inactive)
- GI50 (CAKI-1): > 100 µM (inactive)
- GI50 (CCRF-CEM): > 100 µM (inactive)
- GI50 (COLO 205): > 100 µM (inactive)
- GI50 (DU-145): > 100 µM (inactive)
- GI50 (EKVX): > 100 µM (inactive)
- GI50 (HCC 2998): > 100 µM (inactive)
- GI50 (HCT-116): > 100 µM (inactive)
- GI50 (HCT-15): > 100 µM
- GI50 (HL-60): > 100 µM (inactive)
- GI50 (HOP-62): > 100 µM (inactive)
- GI50 (HOP-92): > 100 µM (inactive)
- GI50 (HT-29): > 100 µM (inactive)
- GI50 (Hs-578T): > 100 µM (inactive)
- GI50 (IGROV-1): > 100 µM (inactive)
- GI50 (K562): > 100 µM (inactive)
- GI50 (KM12): > 100 µM (inactive)
- GI50 (LOX IMVI): > 100 µM (inactive)
- GI50 (M14): > 100 µM (inactive)
- GI50 (MCF7): > 100 µM (inactive)
- GI50 (MDA-MB-231): > 100 µM (inactive)
- GI50 (MDA-MB-435): > 100 µM (inactive)
- GI50 (MDA-N): > 100 µM (inactive)
- GI50 (MOLT-4): > 100 µM (inactive)
- GI50 (Malme-3M): > 100 µM (inactive)
- GI50 (NCI-H226): > 100 µM (inactive)
- GI50 (NCI-H23): > 100 µM (inactive)
- GI50 (NCI-H460): > 100 µM (inactive)
- GI50 (NCI-H522): > 100 µM (inactive)
- GI50 (NCI/ADR-RES): > 100 µM (inactive)
- GI50 (OVCAR-3): > 100 µM (inactive)
- GI50 (OVCAR-4): > 100 µM (inactive)
- GI50 (OVCAR-5): > 100 µM (inactive)
- GI50 (OVCAR-8): > 100 µM (inactive)
- GI50 (PC-3): > 100 µM (inactive)
- GI50 (RPMI-8226): > 100 µM (inactive)
- GI50 (RXF 393): > 100 µM (inactive)
- GI50 (SF-268): > 100 µM (inactive)
- GI50 (SF-295): > 100 µM (inactive)
- GI50 (SK-MEL-28): > 100 µM (inactive)
- GI50 (SK-MEL-2): > 100 µM (inactive)
- GI50 (SK-MEL-5): > 100 µM (inactive)
- GI50 (SK-OV-3): > 100 µM (inactive)
- GI50 (SN12C): > 100 µM (inactive)
- GI50 (SNB-19): > 100 µM (inactive)
- GI50 (SNB-75): > 100 µM (inactive)
- GI50 (SR): > 100 µM (inactive)
- GI50 (SW-620): > 100 µM (inactive)
- GI50 (T47D): > 100 µM (inactive)
- GI50 (TK-10): > 100 µM (inactive)
- GI50 (U-251): > 100 µM (inactive)
- GI50 (UACC-257): > 100 µM (inactive)
- GI50 (UACC-62): > 100 µM (inactive)
- GI50 (UO-31): > 100 µM (inactive)
